The source of these data is US9932339B2, “Helquats with heteroaromatic substituents, preparation thereof, and use thereof as G-quadruplex stabilizers” (USTAV ORGANICKE CHEMIE A BIOCHEMIE AV CR, V.V.I., priority 2014, dated 2018).

Like-named read-outs stand apart in the source and are kept apart here.

For test [1], the system named is c-myc protein. Put plainly: Immunodetection of protein c-myc in HGC-27 cell lysates (Western blot). In kind it is cell-based, human. As to conditions: 50 μmol · l^−1, 24 hour incubation, normalized to β-actin. Here is the method:
Determination of changes in c-myc protein expression (transcription factor) in cell lysates prepared from tumor cell line HGC-27 after treatment with test helquats (Tab. 7) was carried out by immunodetection after separation of proteins according to their size by gel electrophoresis (SDS-PAGE) and blotting.
To determine the influence helquats on expression of c-myc protein, the cells were cultured under standard conditions and in the exponential growth phase were seeded into flasks at a density of 25,000 cells/cm^2. The next day selected helquats were added at a concentration of 50 μmol·l^−1. After 24 hour incubation, the cell pellets were obtained and, after addition of RIPA buffer with protease inhibitors (PrIC) and phosphatases (PhIC) (for composition see Tab. 8) cell lysates were prepared. 150 μl of RIPA buffer was used for 10^7 cells. Protein concentrations in the lysates were measured by BCA method. Separation of proteins in the lysates was carried out on a 12% denaturing polyacrylamide gel. The separated proteins were transferred to PVDF membrane by Western blotting.
Incubation with primary mouse monoclonal antibody against the protein c-myc (dilution 1:1000 in “SignalBoost” reagent) was carried out overnight at 4° C., and then with the primary mouse anti-β-actin (1:5000 dilution in 5% milk in TBS-T buffer) at room temperature for 2 hours. Subsequently, the secondary horse monoclonal antibody conjugated to horseradish peroxidase (diluted 1:2000 in 5% milk in TBS-T buffer) binding to mouse IgG antibody was applied. C-myc proteins and β-actin bound to the membrane were visualized using detection kit (SuperSignal® West Femto Maximum Sensitivity Substrate, Cat. No. 34095, Thermo Fisher Scientific, Inc., USA) in the chemiluminescence detection system ImageQuant LAS 4000 Mini (Cat. No. 28-9558-13, GE Healthcare Life Sciences, USA). The amount of protein was quantified by densitometry in Quantity One software. The amount of c-myc in the samples was normalized to β-actin, and subsequently related to a control sample.
On the technique in general: In western blotting, separated proteins are transferred to a membrane and probed.

In test [2] the test system is CCRF-CEM. Put plainly: XTT cytotoxicity/proliferation assay, CCRF-CEM. The following applies: Homo sapiens, CCRF-CEM. In kind it is cell-based. How it is done:
To assess the antiproliferative effects of the tested substances in vitro, tumor cell line CCRF-CEM derived from acute lymphoblastic leukemia and normal (healthy) HUVEC endothelial cells from umbilical vein were used. Both of these cell lines were cultured under optimal conditions for their growth in the appropriate medium in plastic bottles or plastic Petri dishes of various sizes (TPP, BD Biosciences) at 37° C., 5% CO2 and 95% humidity. HUVEC cells were purchased from BD Biosciences. CCRF-CEM cell line was obtained from ATCC/LGC Standards (American Type Cell Collection).
Suspension cell line CCRF-CEM is a continuous in vitro culture of acute lymphoblastic leukemia. Cell line CCRF-CEM was grown in RPMI 1640 medium (Sigma-Aldrich, cat. No. R8758) supplemented with 2 mmol·l^−1 glutamine (Invitrogen, cat. No. 35050-038), 10% fetal bovine serum (FBS; Sigma-Aldrich, cat. No. F9665), 100 IU/ml penicillin, 100 μg/ml streptomycin (Sigma-Aldrich, cat. No. P0781). Passaging was carried out 2-3 times a week. Population doubling time of CCRF-CEM cells under the used culture conditions is 20 hours.
For testing of the sensitivity of cell lines to studied helquats XTT cytotoxicity/proliferation assay for determination of cell viability was used. This method is based on the ability of metabolically active cells to reduce the yellow tetrazolium salt XTT to orange formazan. The rate of conversion is measured as the increase in absorbance at 492 nm and is proportional to the enzymatic activity of mitochondrial dehydrogenases and thus the number of metabolically active (viable) cells. The output is the IC50 value corresponding to the concentration of the test substance that causes a decrease in the number of viable cells by half (i.e. 50% slowdown of cell division) relative to the control, untreated population. Thus it reflects the effectiveness of the test substance towards the tested cell line.
Cells in exponential growth phase were plated into 96-well microtiter plate at a concentration of 3000 cells per well. Each well contained 90 μl of cell suspension. The following day, 10 μl of 10× concentrated test substances was added. Effect of helquats has been studied in the concentration range 1-100 μmol·l^−1 (or 1, 2.5, 5, 7.5, 10; 15; 25; 50 and 100 μmol·l^−1). In addition to the part of the plate containing the mentioned dilutions of test compounds there were always two control columns present, first column with medium alone (i.e. blank) and the second column with the cells in medium without test compounds (control). Into the blank and control wells the same volume of solvent (water) as the volume of the substances was added. After 72 hours of treatment with substances the measurement of viability was performed according to the manufacturer instructions. Briefly, into each well of a 96-well microtiter plate 50 μl of the prepared working solution of XTT (detection reagent) was added and then the microtiter plate was returned to the CO2 incubator. After 2 hours, the absorbance of each well at 492 nm (reference wavelength 690 nm) was measured using a multifunctional microplate reader (Tecan Genios, Austria).
The results of determination of the viability of cancer and normal cells after treatment with different concentrations of test substances are summarized in Table 9. […] Each concentration of a helquat was tested in triplicates within one IC50 value determination. Each of these IC50 value determinations was repeated in at least three independent experiments. Values above 100 μmol·l^−1 were obtained by extrapolation of data measured in the concentration range 0-100 μmol·l^−1 of helquats.

The test system of test [3] is HUVEC. The test can be described thus: XTT cytotoxicity/proliferation assay, HUVEC. The format is cell-based, human. As to conditions: Homo sapiens, HUVEC. How it is done: To assess the antiproliferative effects of the tested substances in vitro, tumor cell line CCRF-CEM derived from acute lymphoblastic leukemia and normal (healthy) HUVEC endothelial cells from umbilical vein were used. Both of these cell lines were cultured under optimal conditions for their growth in the appropriate medium in plastic bottles or plastic Petri dishes of various sizes (TPP, BD Biosciences) at 37° C., 5% CO2 and 95% humidity. HUVEC cells were purchased from BD Biosciences. CCRF-CEM cell line was obtained from ATCC/LGC Standards (American Type Cell Collection). Normal human endothelial cells from the umbilical vein are adherent cells, which were grown in plastic Petri dishes coated with collagen I. The culture medium (E-STIMTM; BD Biosciences, cat. […] Then, 5 ml of complete culture media E-STIM™ was added and the cells were centrifuged (180×g, 7 minutes), resuspended and transferred in a desired amount in a new Petri dish with fresh medium. In the experiments cells between passages 3 and 8 (after thawing) were used. Population doubling time of HUVEC cells under the used culture conditions is 38 hours. For testing of the sensitivity of cell lines to studied helquats XTT cytotoxicity/proliferation assay for determination of cell viability was used. This method is based on the ability of metabolically active cells to reduce the yellow tetrazolium salt XTT to orange formazan. The rate of conversion is measured as the increase in absorbance at 492 nm and is proportional to the enzymatic activity of mitochondrial dehydrogenases and thus the number of metabolically active (viable) cells. […] Thus it reflects the effectiveness of the test substance towards the tested cell line. Cells in exponential growth phase were plated into 96-well microtiter plate at a concentration of 3000 cells per well. Each well contained 90 μl of cell suspension. The following day, 10 μl of 10× concentrated test substances was added. […] In addition to the part of the plate containing the mentioned dilutions of test compounds there were always two control columns present, first column with medium alone (i.e. blank) and the second column with the cells in medium without test compounds (control). Into the blank and control wells the same volume of solvent (water) as the volume of the substances was added. After 72 hours of treatment with substances the measurement of viability was performed according to the manufacturer instructions. Briefly, into each well of a 96-well microtiter plate 50 μl of the prepared working solution of XTT (detection reagent) was added and then the microtiter plate was returned to the CO2 incubator. After 2 hours, the absorbance of each well at 492 nm (reference wavelength 690 nm) was measured using a multifunctional microplate reader (Tecan Genios, Austria).
A general note: Tetrazolium assays rely on reduction of a dye to a coloured formazan, in cell work by metabolically active cells.

Where [4] appears, read: 72 hours of treatment, read-out: IC50 CCRF CEM.
The mark [5] stands for this setting: 72 hours of treatment, values above 100 μmol·l^−1 obtained by extrapolation, read-out: IC50 HUVEC.

Regarding `C(=C\c1cc2ccccc2[n+]2c1-c1c(ccc3c1-c1cccc[n+]1CCC3)CCC2)/c1ccc(-c2cccs2)s1.O=S(=O)([O-])C(F)(F)F.O=S(=O)([O-])C(F)(F)F` [MSC-C9-16, 19-((E)-2-([2,2′-bithiophen]-5-yl)vinyl)-6,7,8,11,12,13-hexahydropyrido[1′″,2′″:1″,2″]azepino[4″,3″:5′,6′]benzo[1′,2′:3,4]azepino[1,2-a]quinoline-5,14-diium trifluoromethanesulfonate], the “c-myc protein expression relative to control (control = 100%)” value in test [1] worked out at 36%. In addition, the IC50 in test [2] (setting [4]) was ≤ 10 µM; in test [2] (72 hours, summary of table 9, read-out: concentrations toxic towards CCRF-CEM cells), < 25 µM; in test [3] (setting [5]) it was ≥ 100 µM; in test [3] (72 hours, summary of table 9, read-out: concentrations non-toxic towards HUVEC cells), > 100 µM.
For `C(=C\c1cc2ccccc2o1)/c1cc(/C=C/c2cc3ccccc3o2)[n+]2c(c1)-c1c(ccc3c1-c1cccc[n+]1CC3)CC2.O=S(=O)([O-])C(F)(F)F.O=S(=O)([O-])C(F)(F)F` [HTA-C9-17, 2,4-bis((E)-2-(benzofuran-2-yl)vinyl)-6,7,10,11-tetrahydrodipyrido[2,1-a:1′,2′-k][2,9]phenanthroline-5,12-diium trifluoromethanesulfonate], in test [1], the “c-myc protein expression relative to control (control = 100%)” value is 44%. For the same compound, the IC50 in test [2] (setting [4]) was 26 to 50 µM; in test [3] (setting [5]) it was ≥ 51 µM.
On to `Brc1ccc2c(/C=C/c3cc4ccccc4[n+]4c3-c3c(ccc5c3-c3cccc[n+]3CCC5)CCC4)c[nH]c2c1.O=S(=O)([O-])C(F)(F)F.O=S(=O)([O-])C(F)(F)F` [MSC-C9-18, 19-((E)-2-(6-bromo-1H-indol-3-yl)vinyl)-6,7,8,11,12,13-hexahydropyrido[1′″,2′″:1″,2″]azepino[4″,3″:5′,6′]benzo[1′,2′:3,4]azepino[1,2-a]quinoline-5,14-diium trifluoromethanesulfonate], for which the “c-myc protein expression relative to control (control = 100%)” value in test [1] turned out to be 31%. Moreover, the figures for the IC50 in test [2] (setting [4]) and in test [3] (setting [5]) were 11 to 25 µM and ≥ 51 µM, respectively.
The matching figures for `Cc1c(/C=C/c2cc3ccccc3[n+]3c2-c2c(ccc4c2-c2cccc[n+]2CCC4)CCC3)sc2ccccc12.O=S(=O)([O-])C(F)(F)F.O=S(=O)([O-])C(F)(F)F` [MSC-C10-36, 19-((E)-2-(3-methylbenzo[b]thiophen-2-yl)vinyl)-6,7,8,11,12,13-hexahydropyrido[1′″,2′″:1″,2″]azepino[4″,3″:5′,6′]benzo[1′,2′:3,4]azepino[1,2-a]quinoline-5,14-diium trifluoromethanesulfonate]: 85%, ≤ 10 µM and ≥ 51 µM.
The matching figures for `C(=C\c1ccc(-c2cccs2)s1)/c1cc(/C=C/c2ccc(-c3cccs3)s2)[n+]2c(c1)-c1c(ccc3c1-c1cccc[n+]1CC3)CC2.O=S(=O)([O-])C(F)(F)F.O=S(=O)([O-])C(F)(F)F` [HTA-C9-16, 2,4-bis((E)-2-([2,2′-bithiophen]-5-yl)vinyl)-6,7,10,11-tetrahydrodipyrido[2,1-a:1′,2′-k][2,9]phenanthroline-5,12-diium trifluoromethanesulfonate]: 32%, 11 to 25 µM and 26 to 50 µM.
